Tests used:
[1] = Stability of AlDeLuc at acidic, neutral and alkaline pHs; format: physicochemical; details: 2 μM, then ALDH1A1 and luciferase
Protocol: Stability of AlDeLuc at Acidic, Neutral and Alkaline pHs. The stability of AlDeLuc (2 μM) to acidic, neutral and alkaline conditions were investigated in a black 96-well plate and monitored using the IVIS imaging system. AlDeLuc was incubated in 1 M HCl (acidic), 1 M NaCl (neutral, pH=7), or 1 M NaOH (alkaline) for one hour, neutralized, and diluted with 0.1 M potassium phosphate buffer (pH 7.4). To the black well-plate was added PBS (pH 7.4), NAD^+ (1 mM), ALDH1A1 (0.4 μM), and either the acidic-, neutral-, or alkaline-treated AlDeLuc. Immediately after, each well was treated with ATP-MgSO4 (45 μL, prepared by mixing 17.78 mM ATP-Mg and 35.56 mM MgSO4 in a 1:1 ratio in PBS buffer) and luciferase (5 μL, 1 mg/mL in PBS containing 10% glycerol) to initiate bioluminescence production. Light was collected immediately after mixing, and the signal enhancement was determined relative to control wells not treated with AlDeLuc. The total volume of each well was 200 μL (PBS (pH 7.4) with 0.2% DMSO). All data reported as the mean±standard deviation.

[2] = molecular target: T1, ALDH1A1 (Mus musculus, UniProt P24549); experiment: Validation of ALDH-mediated activation of AlDeLuc in heterotopic breast cancer model via DEAB inhibition; format: in vivo, BALB/c mice; design: from tissue; host or cells: 4T1-Luc tumours in BALB/c mice; details: AlDeLuc alone 0.55 mg/kg; 40 min after injection
T1 sequence (P24549 1-501): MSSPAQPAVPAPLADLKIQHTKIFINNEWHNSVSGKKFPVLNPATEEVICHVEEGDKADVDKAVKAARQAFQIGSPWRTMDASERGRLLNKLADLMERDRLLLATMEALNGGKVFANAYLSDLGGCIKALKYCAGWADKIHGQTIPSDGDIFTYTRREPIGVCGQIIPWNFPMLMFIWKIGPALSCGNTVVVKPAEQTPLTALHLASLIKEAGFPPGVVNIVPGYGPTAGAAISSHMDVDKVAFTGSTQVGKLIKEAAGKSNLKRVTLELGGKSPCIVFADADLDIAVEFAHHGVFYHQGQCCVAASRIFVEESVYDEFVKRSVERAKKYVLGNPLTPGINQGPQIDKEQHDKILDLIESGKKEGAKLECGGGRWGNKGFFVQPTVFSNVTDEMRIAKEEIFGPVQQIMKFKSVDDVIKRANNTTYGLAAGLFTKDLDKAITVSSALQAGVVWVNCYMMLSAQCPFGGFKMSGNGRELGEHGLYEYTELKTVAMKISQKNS
Protocol: Validation of ALDH-mediated Activation of AlDeLuc in a Heterotopic Breast Cancer Model via DEAB Inhibition. BALB/c mice bearing 4T1-Luc tumors were anesthetized using isoflurane (1-3% for maintenance; up to 5% for induction) in oxygen from a precision vaporizer. After testing to ensure animals are fully under anesthesia, each mouse was administered AlDeLuc via retro-orbital injection (0.55 mg/kg, 1:19 v/v DMSO:PBS). Images were captured using the IVIS imaging system 40 minutes after injection. Bioluminescence light was captured in open mode (no filters were applied). ROIs were drawn around each tumor and summed for each animal. The signal intensity was quantified using the Living Image Analysis Software. After two days, the same animals were anesthetized and co-administered a solution of AlDeLuc and DEAB (0.55 mg/kg and 93 mg/kg respectively, 1:19 v/v DMSO:PBS). After the allotted 40 minutes, the images were captured using the IVIS imaging system. Bioluminescence was collected in open mode (no filters were applied). ROIS were drawn around each tumor and summed for each animal. The signal intensity was quantified using the Living Image Analysis Software.

[3] = tested on: A549 human lung carcinoma cells; experiment: AlDeLuc activation in A549 cells, lysate bioluminescence; format: cell-based
Protocol: Validation of ALDH-Mediated Activation of AlDeLuc in Human Lung Cancer Cells. A549 cells were cultured in T75 culture flasks. After two days, cells had become ˜90% confluent. An aliquot of HAMS FK12 media (1 mL) was removed from each flask and replaced with either disulfiram (DSF) (100 μM, 0.5% DMSO) or vehicle (0.5% DMSO). After incubation for one hour, the solutions were aspirated, the cells were washed with PBS, and resuspended in fresh HAMS FK12 media (9 mL). Each flask was then incubated with the AlDeLuc such that the final concentration of the probe is 100 µM and 1% DMSO. After 60 minutes this solution was aspirated, washed with fresh PBS, and detached from the culture flasks. The cells were then transferred to a 15 mL centrifuge tube and pelleted at 1000 rpm for 5 minutes at room temp. The cells were resuspended in PBS along with 10% protease inhibitor solution (1 protease inhibitor mini tablet per 10 mL of PBS, Pierce, Thermo Fisher Scientific) and sonicated on ice for 2.5 minutes (pulse 01, 01, 40%). […] ROIs were drawn around each well and the signal intensity was quantified using the Living Image Analysis software.
Determining Sensitivity of AlDeLuc by Cell Concentration Changes. […] ROIs were drawn around each well and the signal intensity was quantified using the Living Image Analysis software.

## CCN(CC)c1ccc2nc(C3=N[C@@H](C(OC)OC)CS3)sc2c1 [AlDeLuc, (S)-2-(4-(dimethoxymethyl)-4,5-dihydrothiazol-2-yl)-N,N-diethylbenzo[d]thiazol-6-amine]
[1]; 1 M NaCl (neutral) one hour
  bioluminescence (acetal unmasking): no bioluminescence
[1]; 1 M NaOH (alkaline) one hour
  bioluminescence (acetal unmasking): no bioluminescence
[2]
  total luminescent counts: 2.18±0.60×10^4
[3]; 3.6×10^6 A549 cells, 100 μM, 60 min
  bioluminescence intensity increase: 56 fold
[3]; ~1.25×10^5 A549 cells, 20 μM, one hour
  light emission relative to vehicle controls: 22.1 fold
